Experimental data: the Kinase Knowledgebase extract (Sharma et al. 2016)

Molecular target: PIK3CB;PIK3CG;PIK3CD;PIK3CA (human) (UniProt P48736)
Assay: Enzyme Assay

Row | IC50 | SMILES
1 | 431 nM | COC(=O)c1ccc(Cn2nc(C(=O)N3CCOCC3)c3c2-c2ccccc2S(=O)(=O)C3)o1
2 | 3050 nM | O=C(c1nn(-c2ccccc2)c2c1CS(=O)(=O)c1ccncc1-2)N1CCOCC1
3 | 3110 nM | CN(C)CCCn1nc(C(=O)N2CCOCC2)c2c1-c1ccccc1S(=O)(=O)C2
4 | 1730 nM | COc1cccc2c1S(=O)(=O)Cc1c(C(=O)N3CCOCC3)nn(C)c1-2
5 | 40 nM | COCCN1CCC[C@H](n2nc(C(=O)N3CCOCC3)c3c2-c2ccccc2S(=O)(=O)C3)C1
6 | 7970 nM | O=C(c1nn([C@@H]2CCCN(CCF)C2)c2c1CS(=O)(=O)c1ccccc1-2)N1CCOCC1
7 | 104 nM | O=C(c1nn([C@@H]2CCCN(C3CCOCC3)CC2)c2c1CS(=O)(=O)c1ccccc1-2)N1CCOCC1
8 | 3590 nM | O=C(Nc1cccc(-n2nc(C(=O)N3CCOCC3)c3c2-c2ccccc2S(=O)(=O)C3)c1)N1CCOCC1
9 | 122 nM | O=C(c1nn(C2CCCN(CCN3CCOCC3)C2)c2c1CS(=O)(=O)c1ccccc1-2)N1CCOCC1 (stereo unspecified)
10 | 912 nM | O=C(c1nn(C2CCC(CN3CCOCC3)CC2)c2c1CS(=O)(=O)c1ccccc1-2)N1CCOCC1 (stereo unspecified)
11 | 57 nM | O=C(c1nn(C2CCN(CC3CCOC3)C2)c2c1CS(=O)(=O)c1c(F)cccc1-2)N1CCOCC1 (stereo unspecified)
12 | 826 nM | O=C(c1nn(-c2cccc(-c3ccoc3)c2)c2c1CS(=O)(=O)c1ccccc1-2)N1CCOCC1
13 | 7 nM | O=C(c1nn([C@H]2CCCN(CCN3CCCC3)C2)c2c1CS(=O)(=O)c1ccccc1-2)N1CCOCC1
14 | 6690 nM | O=C(c1nn(-c2cccc(-c3ncon3)c2)c2c1CS(=O)(=O)c1ccccc1-2)N1CCOCC1
15 | 43 nM | CN(C)Cc1ccc(-n2nc(C(=O)N3CCOCC3)c3c2-c2ccccc2S(=O)(=O)C3)cc1
16 | 386 nM | O=C(c1nn(C2CCC(F)(F)CC2)c2c1CS(=O)(=O)c1ccccc1-2)N1CCOCC1
17 | 4040 nM | O=C(O)c1nn(-c2ccc(CN3CCOCC3)cc2)c2c1CS(=O)(=O)c1ccccc1-2
18 | 468 nM | O=C(c1nn(C2CCCN(c3ccccc3)C2)c2c1CS(=O)(=O)c1ccccc1-2)N1CCOCC1 (stereo unspecified)

Row | IC50 | SMILES
19 | 280 nM | O=C(c1nn(C2CCN(CCC3CCOCC3)C2)c2c1CS(=O)(=O)c1ccccc1-2)N1CCOCC1 (stereo unspecified)
20 | 226 nM | CNCc1ccc(-n2nc(C(=O)N3CCOCC3)c3c2-c2ccccc2S(=O)(=O)C3)cc1
21 | 926 nM | Cc1cccc(-n2nc(C(=O)N3CCOCC3)c3c2-c2ccccc2S(=O)(=O)C3)c1
22 | 376 nM | N#Cc1cccc(-n2nc(C(=O)N3CCOCC3)c3c2-c2ccccc2S(=O)(=O)C3)c1
23 | 4640 nM | O=C(c1nn(C2CCNC2)c2c1CS(=O)(=O)c1ccccc1-2)N1CCOCC1 (stereo unspecified)
24 | 11 nM | O=C(c1nn(C2CCCN(CC3CCOCC3)C2)c2c1CS(=O)(=O)c1ccccc1-2)N1CCOCC1 (stereo unspecified)
25 | 3350 nM | COc1ccc2c(c1)-c1c(c(C(=O)N3CCOCC3)nn1-c1ccccc1)CS2(=O)=O
26 | 997 nM | COCc1cccc(-n2nc(C(=O)N3CCOCC3)c3c2-c2ccccc2S(=O)(=O)C3)c1
27 | 4020 nM | O=C(c1nn(-c2ccccc2Cl)c2c1CS(=O)(=O)c1ccccc1-2)N1CCOCC1
28 | 188 nM | COCCN1CCCC(n2nc(C(=O)N3CCOCC3)c3c2-c2ccccc2S(=O)(=O)C3)C1 (stereo unspecified)
29 | 107 nM | O=C(c1nn(-c2ccc(CNC3CCOCC3)cc2)c2c1CS(=O)(=O)c1ccccc1-2)N1CCOCC1
30 | 808 nM | CC(C)(C)OC(=O)N1CCC(n2nc(C(=O)N3CCOCC3)c3c2-c2ccccc2S(=O)(=O)C3)CC1
31 | 3460 nM | CN1c2c(C(=O)N3CCOCC3)nn(-c3ccccc3)c2-c2ccccc2S1(=O)=O
32 | 1230 nM | CN1CCCC1CCn1nc(C(=O)N2CCOCC2)c2c1-c1ccccc1S(=O)(=O)C2 (stereo unspecified)
33 | 193 nM | O=C(c1nn(-c2cccc(-c3ccncc3)c2)c2c1CS(=O)(=O)c1ccccc1-2)N1CCOCC1
34 | 400 nM | O=C(c1nn(-c2ccc(CN3CCOCC3)cc2)c2c1CS(=O)(=O)c1ncccc1-2)N1CCOCC1
35 | 750 nM | O=C(c1ccoc1)N1CCC[C@H](n2nc(C(=O)N3CCOCC3)c3c2-c2ccccc2S(=O)(=O)C3)C1
36 | 733 nM | O=C(CC1CCOCC1)N1CCC(n2nc(C(=O)N3CCOCC3)c3c2-c2ccccc2S(=O)(=O)C3)C1 (stereo unspecified)
